Reference: the supplement of paper PMC10307832

What was measured:
Experiment in all cases: relative viability (nuclei count vs DMSO), 5 days (fraction); higher = more cells survive
SW 1573 = tested on: SW 1573
Method in brief: (§1)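 Relative viability is defined as nuclei in treated wells over nuclei in vehicle wells. Duplicate plates were run and medians reported. Lung cancer cell lines in 1536-well plates were dosed by pin tool one day after seeding, with one drug or with a fixed anchor-drug dose plus five library-drug doses (not always all listed) in √10 steps, and nuclei were counted after 5 days.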

NCI-H1651 = tested on: NCI-H1651
Method in brief: as §1

NCI-H1355 = tested on: NCI-H1355
Method in brief: as §1

ABC-1 = tested on: ABC-1
Method in brief: as §1

HCC-44 = tested on: HCC-44
Method in brief: as §1

NCI-H1915 = tested on: NCI-H1915
Method in brief: as §1

UMC-11 = tested on: UMC-11
Method in brief: as §1

NCI-H2023 = tested on: NCI-H2023
Method in brief: as §1

NCI-H2085 = tested on: NCI-H2085
Method in brief: as §1

PC-14 = tested on: PC-14
Method in brief: as §1

NCI-H650 = tested on: NCI-H650
Method in brief: as §1

EPLC-272H = tested on: EPLC-272H
Method in brief: as §1

LC-2-ad = tested on: LC-2-ad
Method in brief: as §1

HARA = tested on: HARA
Method in brief: as §1

NCI-H838 = tested on: NCI-H838
Method in brief: as §1

NCI-H2126 = tested on: NCI-H2126
Method in brief: as §1

COR-L23 = tested on: COR-L23
Method in brief: as §1

HCC-15 = tested on: HCC-15
Method in brief: as §1

NCI-H2347 = tested on: NCI-H2347
Method in brief: as §1

NCI-H1993 = tested on: NCI-H1993
Method in brief: as §1

LU99A = tested on: LU99A
Method in brief: as §1

Work on `CC(=O)O[C@@]12CO[C@@H]1C[C@H](O)[C@@]1(C)C(=O)[C@H](O)C3=C(C)[C@@H](OC(=O)[C@H](O)[C@@H](NC(=O)OC(C)(C)C)c4ccccc4)C[C@@](O)([C@@H](OC(=O)c4ccccc4)[C@H]21)C3(C)C` [Docetaxel] + Nc1ncn([C@H]2C[C@H](O)[C@@H](CO)O2)c(=O)n1 [Decitabine] (partner 2 µM) yielded a relative viability (SW 1573; first compound 0.0002 µM) of 0.387, a relative viability (SW 1573; first compound 0.000632 µM) of 0.296 and a relative viability (SW 1573; first compound 0.002 µM) of 0.172. For the same compound, the relative viability (SW 1573; first compound 0.006325 µM) was 0.165, the relative viability (SW 1573; first compound 0.02 µM) was 0.121 and the relative viability (NCI-H1651; first compound 0.0002 µM) was 0.458. The relative viability (NCI-H1651; first compound 0.000632 µM) was 0.547, the relative viability (NCI-H1651; first compound 0.002 µM) was 0.299 and the relative viability (NCI-H1651; first compound 0.006325 µM) was 0.173. For the same compound, the relative viability (NCI-H1355; first compound 0.0002 µM) was 0.35, the relative viability (NCI-H1355; first compound 0.000632 µM) was 0.365 and the relative viability (NCI-H1355; first compound 0.002 µM) was 0.286. The relative viability (NCI-H1355; first compound 0.006325 µM) was 0.276, the relative viability (NCI-H1355; first compound 0.02 µM) was 0.179 and the relative viability (ABC-1; first compound 0.0002 µM) was 1.04. For the same compound, the relative viability (ABC-1; first compound 0.000632 µM) was 0.923, the relative viability (ABC-1; first compound 0.002 µM) was 1.01 and the relative viability (ABC-1; first compound 0.006325 µM) was 0.618. It also gave a relative viability (ABC-1; first compound 0.02 µM) of 0.416, a relative viability (HCC-44; first compound 0.0002 µM) of 0.96 and a relative viability (HCC-44; first compound 0.000632 µM) of 0.97. It also gave a relative viability (HCC-44; first compound 0.002 µM) of 0.853, a relative viability (HCC-44; first compound 0.006325 µM) of 0.472 and a relative viability (HCC-44; first compound 0.02 µM) of 0.566. It also gave a relative viability (NCI-H1915; first compound 0.0002 µM) of 0.245, a relative viability (NCI-H1915; first compound 0.000632 µM) of 0.25 and a relative viability (NCI-H1915; first compound 0.002 µM) of 0.231. The relative viability (NCI-H1915; first compound 0.006325 µM) was 0.184, the relative viability (NCI-H1915; first compound 0.02 µM) was 0.124 and the relative viability (UMC-11; first compound 0.0002 µM) was 0.399. For the same compound, the relative viability (UMC-11; first compound 0.000632 µM) was 0.613, the relative viability (UMC-11; first compound 0.002 µM) was 0.401 and the relative viability (UMC-11; first compound 0.006325 µM) was 0.345. It also gave a relative viability (UMC-11; first compound 0.02 µM) of 0.238, a relative viability (NCI-H2023; first compound 0.0002 µM) of 0.233 and a relative viability (NCI-H2023; first compound 0.000632 µM) of 0.161. The relative viability (NCI-H2023; first compound 0.002 µM) was 0.102, the relative viability (NCI-H2023; first compound 0.006325 µM) was 0.0989 and the relative viability (NCI-H2023; first compound 0.02 µM) was 0.0701. It also gave a relative viability (NCI-H2085; first compound 0.0002 µM) of 0.539, a relative viability (NCI-H2085; first compound 0.000632 µM) of 0.612 and a relative viability (NCI-H2085; first compound 0.002 µM) of 0.552. The relative viability (NCI-H2085; first compound 0.006325 µM) was 0.459, the relative viability (NCI-H2085; first compound 0.02 µM) was 0.401 and the relative viability (PC-14; first compound 0.0002 µM) was 0.175. It also gave a relative viability (PC-14; first compound 0.000632 µM) of 0.107, a relative viability (PC-14; first compound 0.002 µM) of 0.0764 and a relative viability (PC-14; first compound 0.006325 µM) of 0.0588. The relative viability (PC-14; first compound 0.02 µM) was 0.0313, the relative viability (NCI-H650; first compound 0.0002 µM) was 0.299 and the relative viability (NCI-H650; first compound 0.000632 µM) was 0.307. The relative viability (NCI-H650; first compound 0.002 µM) was 0.274, the relative viability (NCI-H650; first compound 0.006325 µM) was 0.278 and the relative viability (NCI-H650; first compound 0.02 µM) was 0.127. It also gave a relative viability (EPLC-272H; first compound 0.0002 µM) of 0.364, a relative viability (EPLC-272H; first compound 0.000632 µM) of 0.308 and a relative viability (EPLC-272H; first compound 0.002 µM) of 0.179. It also gave a relative viability (EPLC-272H; first compound 0.006325 µM) of 0.127, a relative viability (EPLC-272H; first compound 0.02 µM) of 0.0741 and a relative viability (LC-2-ad; first compound 0.0002 µM) of 0.769. For the same compound, the relative viability (LC-2-ad; first compound 0.000632 µM) was 0.714, the relative viability (LC-2-ad; first compound 0.002 µM) was 0.465 and the relative viability (LC-2-ad; first compound 0.006325 µM) was 0.323. The relative viability (LC-2-ad; first compound 0.02 µM) was 0.272, the relative viability (HARA; first compound 0.0002 µM) was 0.459 and the relative viability (HARA; first compound 0.000632 µM) was 0.314. The relative viability (HARA; first compound 0.002 µM) was 0.249, the relative viability (HARA; first compound 0.006325 µM) was 0.187 and the relative viability (HARA; first compound 0.02 µM) was 0.111. The relative viability (NCI-H838; first compound 0.0002 µM) was 0.446, the relative viability (NCI-H838; first compound 0.000632 µM) was 0.496 and the relative viability (NCI-H838; first compound 0.002 µM) was 0.276. The relative viability (NCI-H838; first compound 0.006325 µM) was 0.181, the relative viability (NCI-H838; first compound 0.02 µM) was 0.159 and the relative viability (NCI-H2126; first compound 0.0002 µM) was 0.622. For the same compound, the relative viability (NCI-H2126; first compound 0.000632 µM) was 0.548, the relative viability (NCI-H2126; first compound 0.002 µM) was 0.463 and the relative viability (NCI-H2126; first compound 0.006325 µM) was 0.387. The relative viability (COR-L23; first compound 0.0002 µM) was 0.39, the relative viability (COR-L23; first compound 0.000632 µM) was 0.443 and the relative viability (COR-L23; first compound 0.002 µM) was 0.291. The relative viability (COR-L23; first compound 0.02 µM) was 0.121, the relative viability (HCC-15; first compound 0.0002 µM) was 0.58 and the relative viability (HCC-15; first compound 0.000632 µM) was 0.338. For the same compound, the relative viability (HCC-15; first compound 0.002 µM) was 0.217, the relative viability (HCC-15; first compound 0.02 µM) was 0.191 and the relative viability (NCI-H2347; first compound 0.0002 µM) was 0.637. For the same compound, the relative viability (NCI-H2347; first compound 0.000632 µM) was 0.633, the relative viability (NCI-H2347; first compound 0.002 µM) was 0.644 and the relative viability (NCI-H2347; first compound 0.006325 µM) was 0.51. For the same compound, the relative viability (NCI-H2347; first compound 0.02 µM) was 0.473, the relative viability (NCI-H1993; first compound 0.0002 µM) was 0.608 and the relative viability (NCI-H1993; first compound 0.000632 µM) was 0.683. For the same compound, the relative viability (NCI-H1993; first compound 0.002 µM) was 0.646, the relative viability (NCI-H1993; first compound 0.006325 µM) was 0.585 and the relative viability (NCI-H1993; first compound 0.02 µM) was 0.354. It also gave a relative viability (LU99A; first compound 0.0002 µM) of 0.87, a relative viability (LU99A; first compound 0.000632 µM) of 0.872 and a relative viability (LU99A; first compound 0.002 µM) of 0.466. It also gave a relative viability (LU99A; first compound 0.006325 µM) of 0.363 and a relative viability (LU99A; first compound 0.02 µM) of 0.204.
